Experimental data as given in patent US8993282B2, “Carotenoid fermentation method” (JX Nippon Oil & Energy Corporation, priority 2008, dated 2015).

System: Paracoccus carotinifaciens strain E-396 (FERM BP-4283)
Test: Glutamate concentration series, 5 L fermentation tank culture, carotenoid by HPLC
Assay type: cell-based
Conditions: for Produced carotenoid concentration, 3-Hydroxyechinenone / Produced carotenoid concentration, Adonixanthin / Produced carotenoid concentration, Astaxanthin / Produced carotenoid concentration, Asteroidenone / Produced carotenoid concentration, Canthaxanthin / Produced carotenoid concentration, Echinenone / Produced carotenoid concentration, Phoenicoxanthin / Produced carotenoid concentration, Total Carotenoid / Produced carotenoid concentration, Zeaxanthin / Produced carotenoid concentration, β-Carotene / Produced carotenoid concentration, β-Cryptoxanthin: 100 hours
Procedure: In the examples, carotenoids were quantified by high performance liquid chromatography (HPLC) as follows.
Two columns of Wakosil-II 5 SIL-100 (φ4.6×250 mm) (Wako Pure Chemical Industries, Ltd., Japan) were connected to each other for use as a column. Elution was performed by flowing an n-hexane-tetrahydrofuran-methanol mixed solution (40:20:1), which was a mobile phase, at a flow rate of 1.0 mL/minute at a constant temperature around room temperature. The measurement was performed as follows. Samples were each dissolved in tetrahydrofuran and then diluted 100-fold with the mobile phase. Each dilution was injected in a volume of 20 μL. The column eluate was detected at a wavelength of 470 nm. As a reference for quantification, astaxanthin (SIGMA, Cat. No. A9335) was used. The astaxanthin concentration of the reference solution was determined using the following equation after measuring the absorbance (A) of the reference solution at 477 nm and the area percentage % (B) of the astaxanthin peak at the time of HPLC analysis under the above conditions. Astaxanthin concentration (mg/L)=A/2150×B×100
A medium of the following composition (glucose 20 g/L, filtered corn steep liquor 5 g/L, potassium dihydrogenphosphate 0.54 g/L, dipotassium hydrogenphosphate 12-hydrate 2.78 g/L, calcium chloride dihydrate 5.0 g/L, magnesium sulfate 7-hydrate 0.7 g/L, iron sulfate 7-hydrate 3.0 g/L, alcohol-based defoaming agent 0.2 g/L., pH 7.5) was dispensed in 100 ml volumes into 500 mL cotton-plugged Erlenmeyer flasks and sterilized in an autoclave at 121° C. for 15 minutes to prepare a flask medium for seed culture in 8 flasks.
Next, a medium of the following composition (glucose 40 g/L, corn steep liquor 30 g/L, ammonium sulfate 0.5 g/L, potassium dihydrogenphosphate 2.25 g/L, disodium hydrogenphosphate 12-hydrate 5.7 g/L, calcium chloride dihydrate 0.1 g/L, magnesium sulfate 7-hydrate 0.5 g/L, iron sulfate 7-hydrate 5 g/L, alcohol-based defoaming agent 0.5 g/L) was dispensed in 2.0 L volumes into 5 L fermentation tanks (8 tanks in total). To these tanks, monosodium L-glutamate monohydrate was added at 0, 1, 5, 15, 30, 50, 100 and 200 mmol/L, respectively, followed by sterilization in an autoclave at 121° C. for 30 minutes.
A loopful of Paracoccus carotinifaciens strain E-396 (FERM BP-4283) was inoculated into the flask medium for seed culture and then cultured with rotary shaking at 29° C. for 2 days at 100 rpm. The resulting culture solution was then inoculated in 80 mL, volumes into the individual fermentation tanks, followed by aerobic culture at 29° C. at an aeration volume of 1 vvm for 100 hours. To maintain a pH of 7.2 during culture, the pH was continuously controlled with 15% aqueous ammonia. Glucose was added in an amount of 30 g on day 1 and day 2 of culture to prevent glucose depletion. In addition, the minimum number of agitation rotations was set to 200 rpm, and the number of agitation rotations was varied such that the dissolved oxygen concentration in the culture solution was maintained at 2 to 4 ppm. Bubbling was detected with a bubble sensor and suppressed by automatic addition of an alcohol-based defoaming agent.
At the completion of culture, each culture solution was measured for its carotenoid concentration by HPLC.

[1] = Glutamic acid concentration 1 mmol/L
[2] = Glutamic acid concentration 5 mmol/L
[3] = Glutamic acid concentration 15 mmol/L
[4] = Glutamic acid concentration 30 mmol/L
[5] = Glutamic acid concentration 50 mmol/L
[6] = Glutamic acid concentration 100 mmol/L
[7] = Glutamic acid concentration 200 mmol/L

N[C@@H](CCC(=O)O)C(=O)O [Glutamic acid, glutamic acid]
Produced carotenoid concentration, 3-Hydroxyechinenone [1]: 0.2 mg/L
Produced carotenoid concentration, Adonixanthin [1]: 7.8 mg/L
Produced carotenoid concentration, Astaxanthin [1]: 18.3 mg/L
Produced carotenoid concentration, Asteroidenone [1]: 0.4 mg/L
Produced carotenoid concentration, Canthaxanthin [1]: 2.0 mg/L
Produced carotenoid concentration, Echinenone [1]: 1.6 mg/L
Produced carotenoid concentration, Phoenicoxanthin [1]: 5.1 mg/L
Produced carotenoid concentration, Total Carotenoid [1]: 39.9 mg/L
Produced carotenoid concentration, Zeaxanthin [1]: 0.17 mg/L
Produced carotenoid concentration, β-Carotene [1]: 4.3 mg/L
Produced carotenoid concentration, β-Cryptoxanthin [1]: 0.05 mg/L
Produced carotenoid concentration, 3-Hydroxyechinenone [2]: 0.3 mg/L
Produced carotenoid concentration, Adonixanthin [2]: 7.8 mg/L
Produced carotenoid concentration, Astaxanthin [2]: 27.3 mg/L
Produced carotenoid concentration, Asteroidenone [2]: 0.4 mg/L
Produced carotenoid concentration, Canthaxanthin [2]: 3.7 mg/L
Produced carotenoid concentration, Echinenone [2]: 1.9 mg/L
Produced carotenoid concentration, Phoenicoxanthin [2]: 7.8 mg/L
Produced carotenoid concentration, Total Carotenoid [2]: 55.7 mg/L
Produced carotenoid concentration, Zeaxanthin [2]: 0.18 mg/L
Produced carotenoid concentration, β-Carotene [2]: 6.2 mg/L
Produced carotenoid concentration, β-Cryptoxanthin [2]: 0.07 mg/L
Produced carotenoid concentration, 3-Hydroxyechinenone [3]: 0.3 mg/L
Produced carotenoid concentration, Adonixanthin [3]: 9.6 mg/L
Produced carotenoid concentration, Astaxanthin [3]: 30.8 mg/L
Produced carotenoid concentration, Asteroidenone [3]: 0.6 mg/L
Produced carotenoid concentration, Canthaxanthin [3]: 3.0 mg/L
Produced carotenoid concentration, Echinenone [3]: 2.1 mg/L
Produced carotenoid concentration, Phoenicoxanthin [3]: 7.2 mg/L
Produced carotenoid concentration, Total Carotenoid [3]: 59.7 mg/L
Produced carotenoid concentration, Zeaxanthin [3]: 0.19 mg/L
Produced carotenoid concentration, β-Carotene [3]: 5.8 mg/L
Produced carotenoid concentration, β-Cryptoxanthin [3]: 0.07 mg/L
Produced carotenoid concentration, 3-Hydroxyechinenone [4]: 0.3 mg/L
Produced carotenoid concentration, Adonixanthin [4]: 9.3 mg/L
Produced carotenoid concentration, Astaxanthin [4]: 30.3 mg/L
Produced carotenoid concentration, Asteroidenone [4]: 0.6 mg/L
Produced carotenoid concentration, Canthaxanthin [4]: 3.1 mg/L
Produced carotenoid concentration, Echinenone [4]: 2.2 mg/L
Produced carotenoid concentration, Phoenicoxanthin [4]: 7.4 mg/L
Produced carotenoid concentration, Total Carotenoid [4]: 59.4 mg/L
Produced carotenoid concentration, Zeaxanthin [4]: 0.20 mg/L
Produced carotenoid concentration, β-Carotene [4]: 5.9 mg/L
Produced carotenoid concentration, β-Cryptoxanthin [4]: 0.08 mg/L
Produced carotenoid concentration, 3-Hydroxyechinenone [5]: 0.4 mg/L
Produced carotenoid concentration, Adonixanthin [5]: 10.8 mg/L
Produced carotenoid concentration, Astaxanthin [5]: 30.9 mg/L
Produced carotenoid concentration, Asteroidenone [5]: 0.9 mg/L
Produced carotenoid concentration, Canthaxanthin [5]: 2.0 mg/L
Produced carotenoid concentration, Echinenone [5]: 2.3 mg/L
Produced carotenoid concentration, Phoenicoxanthin [5]: 6.4 mg/L
Produced carotenoid concentration, Total Carotenoid [5]: 58.9 mg/L
Produced carotenoid concentration, Zeaxanthin [5]: 0.21 mg/L
Produced carotenoid concentration, β-Carotene [5]: 4.9 mg/L
Produced carotenoid concentration, β-Cryptoxanthin [5]: 0.07 mg/L
Produced carotenoid concentration, 3-Hydroxyechinenone [6]: 0.3 mg/L
Produced carotenoid concentration, Adonixanthin [6]: 9.2 mg/L
Produced carotenoid concentration, Astaxanthin [6]: 28.6 mg/L
Produced carotenoid concentration, Asteroidenone [6]: 0.6 mg/L
Produced carotenoid concentration, Canthaxanthin [6]: 2.8 mg/L
Produced carotenoid concentration, Echinenone [6]: 2.0 mg/L
Produced carotenoid concentration, Phoenicoxanthin [6]: 7.0 mg/L
Produced carotenoid concentration, Total Carotenoid [6]: 56.2 mg/L
Produced carotenoid concentration, Zeaxanthin [6]: 0.18 mg/L
Produced carotenoid concentration, β-Carotene [6]: 5.5 mg/L
Produced carotenoid concentration, β-Cryptoxanthin [6]: 0.06 mg/L
Produced carotenoid concentration, 3-Hydroxyechinenone [7]: 0.3 mg/L
Produced carotenoid concentration, Adonixanthin [7]: 7.6 mg/L
Produced carotenoid concentration, Astaxanthin [7]: 23.5 mg/L
Produced carotenoid concentration, Asteroidenone [7]: 0.5 mg/L
Produced carotenoid concentration, Canthaxanthin [7]: 2.4 mg/L
Produced carotenoid concentration, Echinenone [7]: 1.7 mg/L
Produced carotenoid concentration, Phoenicoxanthin [7]: 5.9 mg/L
Produced carotenoid concentration, Total Carotenoid [7]: 46.7 mg/L
Produced carotenoid concentration, Zeaxanthin [7]: 0.15 mg/L
Produced carotenoid concentration, β-Carotene [7]: 4.6 mg/L
Produced carotenoid concentration, β-Cryptoxanthin [7]: 0.05 mg/L
produced carotenoid concentration compared to the sample without glutamic acid (glutamic acid at concentrations from 1 to 200 mmol/L): higher produced carotenoid concentration
